For 34 molecules, melting point results are on record in patent US7244738B2, “Arylamine-substituted quinazolinone compounds useful as alpha 1A/B adrenergic receptor antagonists” (Roche Palo Alto LLC, priority 2003, dated 2007).

As a reminder, the melting point is the temperature, or range, at which the solid turns liquid.

Counter-ions that a name gives are not always drawn.

Turning to `COc1cc2[nH]c(N(C)Cc3cccc(Nc4nccc(Cl)n4)c3)nc(=O)c2c(OC)c1OC` [Example 215, 2-{[3-(4-Chloro-pyrimidin-2-ylamino)-benzyl]-methyl-amino}-5,6,7-trimethoxy-1H-quinazolin-4-one], the melting point lay within 128.9 to 133.4 °C. In the case of `COCC(=O)N(C)Cc1cccc(CN(C)c2nc(=O)c3c(C)c(OC)c(OC)cc3[nH]2)c1` [Example 119, N-(3-{[(6,7-Dimethoxy-5-methyl-4-oxo-1,4-dihydro-quinazolin-2-yl)-methyl-amino]-methyl}-benzyl)-2-methoxy-N-methyl-acetamide] it was 150 to 151.2 °C; in that of `COc1cc2[nH]c(N(C)Cc3cccc(Nc4ccnc(Cl)n4)c3)nc(=O)c2c(OC)c1OC` [Example 214, 2-{[3-(2-Chloro-pyrimidin-4-ylamino)-benzyl]-methyl-amino}-5,6,7-trimethoxy-1H-quinazolin-4-one], 205.9 to 210.1 °C. `COc1cc2[nH]c(N(C)Cc3cccc(/N=C(\C)N(C)C)c3)nc(=O)c2c(F)c1OC` [Example 221, N′-(3-{[(5-Fluoro-6,7-dimethoxy-4-oxo-1,4-dihydro-quinazolin-2-yl)-methyl-amino]-methyl}-phenyl)-N,N-dimethyl-acetamidine] returned a melting point of 199.9 to 201.9 °C. `CNCc1cccc(CN(C)c2nc3cc(OC)c(OC)c(C)c3c(=O)[nH]2)c1` [Example C-1, 6,7-Dimethoxy-5-methyl-2-[methyl-(3-methylaminomethyl-benzyl)-amino]-1H-quinazolin-4-one] returned a melting point of 179 to 181.3 °C. In the case of `COc1cc2[nH]c(N(C)Cc3cccc(OCC(=O)O)c3)nc(=O)c2c(OC)c1OC` [Example 158, (3-{[Methyl-(5,6,7-trimethoxy-4-oxo-1,4-dihydro-quinazolin-2-yl)-amino]-methyl}-phenoxy)-acetic acid] it was > 300 °C; in that of `CCN(CCOC)Cc1cccc(CN(C)c2nc(=O)c3c(C)c(OC)c(OC)cc3[nH]2)c1` [Example 121, 2-[(3-{[Ethyl(2-methoxy-ethyl)-amino]-methyl}-benzyl)-methyl-azmino]-6,7-dimethoxy-5-methyl-1H-quinazolin-4-one], 121.8 to 122.3 °C; in that of `CCN(CCOC)Cc1ccc(CN(C)c2nc(=O)c3c(OC)c(OC)c(OC)cc3[nH]2)cc1` [Example 32, 2-[(4-{[Ethyl(2-methoxy-ethyl)-amino]-methyl}-benzyl)-methyl-amino]-5,6,7-trimethoxy-1H-quinazolin-4-one], 120 to 122.4 °C. `COc1cc2[nH]c(N(C)Cc3cccc(CN4CCCC4)c3)nc(=O)c2c(OC)c1OC` [Example 46, 5,6,7-Trimethoxy-2-[methyl-(3-pyrrolidin-1-ylmethyl-benzyl)-amino]-1H-quinazolin-4-one] came in with a melting point of 127 to 129.9 °C. As for `COc1cc2[nH]c(N(C)Cc3cccc(OCC(O)CO)c3)nc(=O)c2c(C)c1OC` (stereo not shown) (as salt: HCl) [Example 7, 2-{[3-(2,3-Dihydroxy-propoxy)-benzyl]-methyl-amino}-6,7-dimethoxy-5-methyl-1H-quinazolin-4-one], the melting point was in the range of 220 to 224 °C. On to `COc1cc2[nH]c(N(C)Cc3cccc(C4=NCCO4)c3)nc(=O)c2c(OC)c1OC` [Example 11, 2-{[3-(4,5-Dihydro-oxazol-2-yl)-benzyl]-methyl-amino}-5,6,7-trimethoxy-1H-quinazolin-4-one], for which the melting point is 202.3 to 203.4 °C.

With `COc1cc2[nH]c(NCc3cccc(/N=C(\C)N(C)C)c3)nc(=O)c2c(C)c1OC` [Example 72, N′-{3-[(6,7-Dimethoxy-5-methyl-4-oxo-1,4-dihydro-quinazolin-2-ylamino)-methyl]-phenyl}-N,N-dimethyl-acetamide], the melting point was in the range of 173 to 175 °C. In the case of `C=CCN1Cc2ccc(CN(C)c3nc(=O)c4c(OC)c(OC)c(OC)cc4[nH]3)cc2C1` [Example 13, 2-[(2-Allyl-2,3-dihydro-1H-isoindol-5-ylmethyl)-methyl-amino]-5,6,7-trimethoxy-1H-quinazolin-4-one] it was 133.7 to 136.6 °C. On to `CCc1c(OC)c(OC)cc2[nH]c(N(C)Cc3cccc(N=C4N(C)CCN4C)c3)nc(=O)c12` (as salt: salt) [Example 207, 2-{[3-(1,3-dimethyl-imidazolidin-2-ylideneamino)-benzyl]-methyl-amino}-5-ethyl-6,7-dimethoxy-1H-quinaolin-4-one], for which the melting point lay within 212.5 to 219.9 °C.

Molecule `CCN(C)Cc1cccc(CN(C)c2nc(=O)c3c(OC)c(OC)c(OC)cc3[nH]2)c1` [Example 114, 2-({3-[(Ethyl-methyl-amino)-methyl]-benzyl}-methyl-amino)-5,6,7-trimethoxy-1H-quinazolin-4-one] gave a melting point of 106.5 to 108.9 °C. In the case of `COc1cc2[nH]c(N(C)Cc3cccc(NC4=NCCC4)c3)nc(=O)c2c(OC)c1OC` [Example G-43, 2-{[3-(4,5-Dihydro-3H-pyrrol-2-ylamino)-benzyl]-methyl-amino}-5,6,7-trimethoxy-1H-quinazolin-4-one] it was 207 to 209 °C. The result for `COc1cc2[nH]c(N(C)Cc3cccc(S(C)(=O)=O)c3)nc(=O)c2c(OC)c1OC` [Example 129, 2-[(3-Methanesulfonyl-benzyl)-methyl-amino]-5,6,7-trimethoxy-1H-quinazolin-4-one] reads 231.5 to 232.9 °C; that for `CCNCc1cccc(CN(C)c2nc(=O)c3c(OC)c(OC)c(OC)cc3[nH]2)c1` [Example 43, 2-[(3-Ethylaminomethyl-benzyl)-methyl-amino]-5,6,7-trimethoxy-1H-quinazolin-4-one], 133.9 to 134.7 °C. In the case of `COc1cc2[nH]c(N(C)Cc3cccc(/N=C(\C4CCC4)N(C)C)c3)nc(=O)c2c(OC)c1OC` [Example 203, N,N-Dimethyl-N′-(3-{[methyl-(5,6,7-trimethoxy-4-oxo-11,4-dihydro-quinazolin-2-yl)-amino]-methyl}-phenyl)-cyclobutanecarboxamidine], the melting point lay within 164.2 to 165.7 °C. `COc1cc2[nH]c(N(C)Cc3cccc(N4CCOC4=O)c3)nc(=O)c2c(OC)c1OC` [Example 255, 5,6,7-ZTrimethoxy-2-{methyl[3-(2-oxo-oxazolidin-3-yl)-benzyl]-amino}-1H-quinazolin-4-one] returned a melting point of 226 to 229.5 °C. The result for `CNC(C)c1cccc(CN(C)c2nc(=O)c3c(OC)c(OC)c(OC)cc3[nH]2)c1` (stereo not shown) [Example 63, 5,6,7-Trimethoxy-2-{methyl-[3-(1-methylamino-ethyl)-benzyl]-amino}-1H-quinazolin-4-one] reads 131.8 to 134.4 °C; that for `COc1cc2[nH]c(N(C)Cc3cccc(N4C(=O)CCC4=O)c3)nc(=O)c2c(C)c1OC` [Example 259], 198.6 to 199.8 °C.

Turning to `COc1cc2[nH]c(N(C)Cc3cccc(C(C)N(C)C)c3)nc(=O)c2c(C)c1OC` (stereo not shown) [Example 61, 2-{[3-(1-Dimethylamino-ethyl)-benzyl]-methyl-amino}-6,7-dimethoxy-5-methyl-1H-quinazolin-4-one], the melting point was 137 to 140.1 °C.

`COc1cc2[nH]c(N(C)Cc3ccc(OCCCN(C)C)cc3)nc(=O)c2c(OC)c1OC` [Example 48, 2-{[4-(3-Dimethylamino-propoxy)-benzyl]-methyl-amino}-5,6,7-trimethoxy-1H-quinazolin-4-one] registered a melting point of 108 to 111 °C. Take `COc1cc2[nH]c(N(C)Cc3cccc(S(=O)(=O)N(C)C)c3)nc(=O)c2c(OC)c1OC` [Example 130]: the melting point fell in the range of 199.9 to 204 °C. The result for `COc1cc2[nH]c(N(C)Cc3cccc(N4C[C@@H](O)CC4=O)c3)nc(=O)c2c(C)c1OC` [Example 27, 2-{[3-((S)-4-Hydroxy-2-oxo-pyrrolidin-1-yl)-benzyl]-methyl-amino}-6,7-dimethoxy-5-methyl-1H-quinazolin-4-one] reads 230.8 to 232.5 °C; that for `COc1cc2[nH]c(N(C)Cc3cccc(NC4=NCCC4)c3)nc(=O)c2cc1OC` [Example 87, 2-{[3-(4,5-Dihydro-3H-pyrrol-2-ylamino)-benzyl]-methyl-amino}-6,7-dimethoxy-1H-quinazolin-4-one], 211 to 214 °C. In the case of `COCCN1CCN=C1c1cccc(CN(C)c2nc(=O)c3c(C)c(OC)c(OC)cc3[nH]2)c1` [Example 246, 6,7-Dimethoxy-2-*{3-[1-(2-methoxy-ethyl)-4,5-dihydro-1H-imidazol-2-yl]-benzyl}-methyla-mino)-5-methyl-1H-quinazolin-4-one] it was 161 to 164.4 °C; in that of `COCC/C(=N\c1cccc(CN(C)c2nc(=O)c3c(OC)c(OC)c(OC)cc3[nH]2)c1)N(C)C.Cl`, 145 °C; in that of `COc1cc2[nH]c(N(C)Cc3cccc(N4C(=O)CCC4=O)c3)nc(=O)c2c(OC)c1OC` [Example 260, 1-(3-{[Methyl-(5,6,7-trimethoxy-4-oxo-1,4-dihydro-quinazolin-2-yl)-amino]-methyl}-phenyl)-pyrrolidine-2,5-dione], 125.5 to 128.5 °C. The result for `COc1cc2[nH]c(N(C)Cc3cccc(C(C)N(C)S(C)(=O)=O)c3)nc(=O)c2c(OC)c1OC` (stereo not shown) [Example 292, N-Methyl-N-[1-(3-{[methyl-(5,6,7-trimethoxy-4-oxo-1,4-dihydro-quinazolin-2-yl)-amino]-methyl}-phenyl)-ethyl]-methanesulfonamide] reads 171 to 172.4 °C. As to `COc1cc2[nH]c(N(C)Cc3cccc(NS(C)(=O)=O)c3)nc(=O)c2c(C(C)C)c1OC` [Example G-2, N-(3-{[(5-Isopropyl-6,7-dimethoxy-4-oxo-1,4-dihydro-quinazolin-2-yl)-methyl-amino]-methyl}-phenyl)-methanesulfonamide], the melting point lay within 215 to 217 °C. On to `COc1cc2[nH]c(N(C)Cc3ccc(CN4CCC(O)C4)cc3)nc(=O)c2c(C)c1OC` (stereo not shown), for which the melting point was in the range of 166 to 169 °C. In the case of `COc1cc2[nH]c(N(C)Cc3cccc(-n4cnc(C)c4)c3)nc(=O)c2c(C)c1OC` [Example 230, 6,7-Dimethoxyt-5-methyl-2-{methyl-[3-(4-methyl-imidazol-1-yl)-benzyl]-amino}-1H-quinazolin-4-one] it was 245 to 249.5 °C.
